One series deals with diabetic patients. The settings on record: cited from earlier work.
In series [1] the test system is KPC1242, Panc-1, AsPC-1, HCT-116, MDA-MB-231, OVCAR-4, OVCAR-8 cancer cell lines. As to the kind of experiment: Cell growth (IncuCyte confluence) in cancer cell lines. The settings on record: increasing concentrations 0.1 μM-10 μM, each of the cancer cells. Type of series: cell-based, murine, human. From the text:
(§1) Murine pancreatic cancer cells KPC1242 (David Tuveson, Cold Spring Harbor), human pancreatic cancer cells, Panc-1 (ATCC: CRL-1469), human breast cancer cells MDA-MB-231 (ATCC: CRM-HTB-26), and human pancreatic stellate cells HPSC (Rosa F. Hwang, MD Anderson cancer) were all cultured in DMEM (Gibco ThermoFisher Scientific, Waltham, MA, Cat #11965084) containing 10% v/v fetal bovine serum (Omega Scientific, Inc., Tarzana, CA, Cat #FB-12). Human pancreatic cancer cells AsPC-1 (ATCC: CRL-1682), human ovarian cancer cells OVCAR-8 (NIH: CVCL-1629), and human ovarian cancer cells OVCAR-4 (NIH: CVCL-1627) were all cultured in DMEM (Gibco, Cat #22400089) containing 10% v/v fetal bovine serum (Omega Scientific). Human colon cancer cells HCT-116 (ATCC: CCL-247) were cultured in McCoy's 5A Modified Medium (Gibco, Cat #16600082) containing 10% v/v fetal bovine serum (Omega Scientific). Human pancreatic duct epithelial cells HPNE (ATCC: CRL-4023) were cultured in DMEM and 200 mM L-Glutamine and 7.5% w/v NaCO3 further supplemented with 15% v/v fetal bovine serum, M3-Base A (Incell, San Antonio, TX), 1M D-Glucose (Gibco Cat #J60067.EQE), 100 μg/mL human EGF (Gibco Cat #PHG0313) and 10 mg/mL puromycin (ThermoFisher, Cat #A1113802).

Series [2] deals with HPNE and HPSC non-transformed cells. As to the kind of experiment: Cell growth (confluence) of normal non-transformed cells. Type of series: cell-based, human. The procedure:
To test the off-target effects of the refined MMe analogs on normal non-transformed cells, the growth of HPNE cells (FIGS. 11A, 11D, and 11G), used as a surrogate for normal pancreatic ductal epithelium, or normal stromal HPSC cells (FIGS. 11B, 11E, and 11H) were measured in increasing concentrations of MMe, pCF3-MMe, or mCF3-MMe and compared to the vehicle control.
as §1

Series [3] has as its system Panc-1 human pancreatic cancer cells. As to the kind of experiment: Cell growth (IncuCyte confluence) in Panc-1 cells.
Excerpt: Values are mean±SD, n=4, each experiment completed in technical quadruplicate.
To investigate tumor cell selectivity, human pancreatic nestin-expressing cells (HPNE) were used as a surrogate for normal epithelial cells, and human pancreatic stellate cells (HPSC) were studied as a non-transformed stromal cell type. Cells were exposed to escalating concentrations of MMe, pCF3-MMe, mCF3-MMe, and pMeO-MMe (FIGS. 2A-2D) and percent confluency measured as a surrogate for daily proliferation.
Cells were plated to standard 96-well tissue culture plates at 4,000 cells/well. Mitochondria-targeted compounds were diluted in full serum medium and added to wells. Cell confluence was measured using an IncuCyte S3 every 2 hours at 10× magnification. […] Image analyses were conducted using the IncuCyte S3 imaging software system.

`CN(C)C(=N)N=C(N)N` [Metformin]: in the series with diabetic patients, the tolerated daily doses was 2-3 grams.
Regarding `N=C(N)NC(=N)NCCCCCCCCCC[P+](c1cccc(C(F)(F)F)c1)(c1cccc(C(F)(F)F)c1)c1cccc(C(F)(F)F)c1.[Br-]` [mCF3-MMe, (10-(3-carbamimidoylguanidino)decyl)tris(3-(trifluoromethyl)phenyl)phosphonium bromide], in series [1], the cell confluency entry is listed as “decreased in a concentration-dependent manner”. The “reduction in toxicity to normal cells compared to MMe” value in series [2] is reported as about 10 fold. Further, the “sensitivity of normal non-transformed cells compared to cancer cells” value in series [2] (HPNE, HPSC versus cancer cells) is on record as “more than a log less sensitive”.
In the case of `COc1ccc([P+](CCCCCCCCCCNC(=N)NC(=N)N)(c2ccc(OC)cc2)c2ccc(OC)cc2)cc1` [pMeO-MMe], in series [3] (human pancreatic cancer cells), the confluence result is “concentration-dependent decrease in confluence”. The “efficacy in pancreas cancer cells” value in series [3] (in contrast to the fluorinated compound) is listed as “significantly lower efficacy”.

The values are drawn from patent US20250042925A1, “Improved Compositions and Methods for Targeting Mitochondria in Cancer Cells” (The Medical College of Wisconsin, Inc., priority 2021, published 2025).
